The values below are quoted from earlier work in patent US20070287931A1, “Methods and systems for administering an appropriate pharmacological treatment to a patient for managing epilepsy and other neurological disorders” (priority 2006, published 2007).

For data set [1] the following is noted: intranasal.
Another data set deals with seizure. The following applies: intranasal.
For data set [2] the following is noted: for plasma concentration per daily dose of 1 mg/kg of primidone: per daily dose of 1 mg/kg of primidone; for plasma concentration per daily dose of 1 mg/kg: per daily dose of 1 mg/kg.
Data set [3] relates to cultured mouse spinal cord neurons. The following applies: 10-30 μg/mL.
The next data set concerns sodium channels. The following applies: in vitro.
Data set [4] deals with dopaminergic and serotonergic neurotransmission. The following applies: in vivo microdialysis.
The next data set has as its system partial seizures. The following applies: controlled trials, adjunctive therapy of partial seizures in adults, oral.
Data set [5] concerns GABA/benzodiazepine receptor ionophore complex. The following applies: in vitro.
A further data set relates to rat hippocampal slices. The following applies: 10-30 μg/mL.
The subject of another data set is T-type Ca^2+ currents. The following applies: in vitro.

Like-named read-outs stand apart in the source and are kept apart here.

`Cc1ncc2n1-c1ccc(Cl)cc1C(c1ccccc1F)=NC2` [Midazolam]: in data set [1], the “KA (absorption rate constant)” value was 2.46 h⁻¹ and the “tE1/2 (elimination half-life)” value is 3.1 h. The “time to terminate a seizure” value with seizure is 30 s.
For `O=C1NC(=O)C(c2ccccc2)(c2ccccc2)N1` [Phenyloin, diphenylhydantoin], the “concentrations at which toxic effects such as nystagmus develop” value was “around 20 μg/ml”. For the same compound, in the data set with seizures, the “concentrations giving chronic control of seizures” value is recorded as “above 10 μg/ml”.
With `CCC1(c2ccccc2)C(=O)NCNC1=O` [primidone, Primidone], in [2] (long term therapy), the “plasma concentration per daily dose of 1 mg/kg of primidone” value is given as “about 1 μg/ml”.
`CCC1(c2ccccc2)C(=O)NC(=O)NC1=O` [phenobarbital, Phenobarbital]: the “plasma concentration per daily dose of 1 mg/kg” value in data set [2] (long term therapy, adults) is reported as “about 10 μg/ml”. Also, the “plasma concentration per daily dose of 1 mg/kg of primidone” value in data set [2] (long term therapy) is given as “about 2 μg/ml”.
With `CCC1(C)CC(=O)NC1=O` (stereo not drawn) [ethosuximide, Ethosuximide], the “plasma concentration per daily dose of 1 mg/kg” value in [2] (long-term therapy) is “about 2 μg/ml”.
For `NS(=O)(=O)Cc1noc2ccccc12` [zonisamide, 1,2-benzisoxazole-3-methanesulfonamide], in [3], the “postsynaptic GABA or glutamate responses” value is on record as “without affecting” and the synaptically-driven electrical activity is “suppresses synaptically-driven electrical activity”. Besides, in the data set with sodium channels, the “effect on sodium channels” value was “blocks sodium channels”. Moreover, in data set [4], the “dopaminergic and serotonergic neurotransmission” value is “facilitates both dopaminergic and serotonergic neurotransmission”. Besides, in the data set with partial seizures, the effective doses is 100 to 600 mg/day. Moreover, the “binding to the GABA/benzodiazepine receptor ionophore complex” value in data set [5] is on record as “binds to the GABA/benzodiazepine receptor ionophore complex in an allosteric fashion which does not produce changes in chloride flux”. In the data set with rat hippocampal slices, the “neuronal or glial uptake of [3H]-GABA” value is listed as “without affecting”. Besides, in the data set on carbonic anhydrase, the “carbonic anhydrase inhibiting activity” value is reported as “weak”. Further, in the data set on T-type Ca^2+ currents, the “effect on voltage-dependent, transient inward currents (T-type Ca2+ currents)” value was “reduces voltage-dependent, transient inward currents”.
